# Tests used:
# Assay in all cases: relative viability (nuclei count vs DMSO), 5 days (fraction); higher = more cells survive
# [1] = compound: CC[C@@H]1C(=O)N(C)c2cnc(Nc3ccc(C(=O)NC4CCN(C)CC4)cc3OC)nc2N1C1CCCC1 [BI-2536] + C[C@]1(O)C[C@@H](c2nc(-c3ccc4ccc(-c5ccccc5)nc4c3)c3c(N)nccn32)C1 [Linsitinib] (partner 1 µM)
# Method in brief: (§1)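 Medians of duplicate plates are given as relative viability. That measure is the nuclei count in treated wells divided by the count in vehicle wells. Counts were taken on 4× images of lung cancer cell lines in 1536-well plates, 5 days after pin-tool dosing the day after seeding with one drug alone or a fixed anchor-drug dose plus five library-drug doses (not always all listed) in √10 steps.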
# [2] = compound: CC1CC(=O)N(C2=CN=C(N=C2N1C3CCCC3)NC4=C(C=C(C=C4)C(=O)NC5CCN(CC5)C)OC)C [NPK76-II-72-1] + CC1(C)CCC(c2ccc(Cl)cc2)=C(CN2CCN(c3ccc(C(=O)NS(=O)(=O)c4ccc(N[C@H](CCN5CCOCC5)CSc5ccccc5)c(S(=O)(=O)C(F)(F)F)c4)cc3)CC2)C1 [Navitoclax] (partner 0.5 µM)
# Method in brief: as §1
# [3] = compound: CC[C@@H]1C(=O)N(C)c2cnc(Nc3ccc(C(=O)NC4CCN(C)CC4)cc3OC)nc2N1C1CCCC1 [BI-2536] + C[C@@H](Oc1cc(-c2cnn(C3CCNCC3)c2)cnc1N)c1c(Cl)ccc(F)c1Cl [Crizotinib] (partner 1 µM)
# Method in brief: as §1
# [4] = compound: CC1CC(=O)N(C2=CN=C(N=C2N1C3CCCC3)NC4=C(C=C(C=C4)C(=O)NC5CCN(CC5)C)OC)C [NPK76-II-72-1] + CC(=O)c1c(C)c2cnc(Nc3ccc(N4CCNCC4)cn3)nc2n(C2CCCC2)c1=O [Palbociclib] (partner 0.5 µM)
# Method in brief: as §1
Cell Line,relative viability ([1]; first compound 0.01 µM),relative viability ([1]; first compound 0.03162 µM),relative viability ([1]; first compound 0.1 µM),relative viability ([1]; first compound 0.3162 µM),relative viability ([1]; first compound 1 µM),relative viability ([2]; first compound 0.01 µM),relative viability ([2]; first compound 0.03162 µM),relative viability ([2]; first compound 0.1 µM),relative viability ([2]; first compound 0.3162 µM),relative viability ([2]; first compound 1 µM),relative viability ([3]; first compound 0.01 µM),relative viability ([3]; first compound 0.03162 µM),relative viability ([3]; first compound 0.1 µM),relative viability ([3]; first compound 0.3162 µM),relative viability ([3]; first compound 1 µM),relative viability ([4]; first compound 0.01 µM),relative viability ([4]; first compound 0.03162 µM),relative viability ([4]; first compound 0.1 µM),relative viability ([4]; first compound 0.3162 µM),relative viability ([4]; first compound 1 µM)
NCI-H2023,0.67,0.667,0.606,0.0984,0.109,0.943,0.947,0.969,0.923,1.01,0.582,0.493,0.346,0.0851,0.0743,0.365,0.385,0.343,0.341,0.439
NCI-H2085,0.958,0.919,0.831,0.267,0.329,1.11,1.12,1.06,1.06,1.19,0.895,0.751,0.578,0.254,0.307,0.475,0.445,0.464,0.489,0.491
NCI-H2087,0.83,1.06,0.927,0.197,0.163,0.972,1.02,0.997,0.919,1.06,0.892,0.771,0.518,0.169,0.139,0.236,0.255,0.242,0.22,0.254
NCI-H2126,0.751,0.759,0.721,0.46,0.268,0.82,0.857,0.874,0.799,0.881,1.04,0.85,0.85,0.341,0.253,0.338,0.348,0.331,0.347,0.345
NCI-H2228,0.692,1.06,0.63,0.116,0.155,0.509,1.06,1.14,0.794,0.932,0.547,0.466,0.236,0.207,0.172,0.759,0.912,0.729,0.6,0.747
NCI-H2347,0.947,0.929,0.967,0.617,0.549,0.761,0.698,0.728,0.789,0.868,0.675,0.692,0.675,0.345,0.445,0.388,0.425,0.389,0.433,0.465
NCI-H2405,0.903,0.855,0.745,0.225,0.468,0.834,0.965,0.806,0.844,1.17,0.807,0.778,0.532,0.223,0.312,0.528,0.554,0.514,0.514,0.561
NCI-H3122,1.03,1.06,1.01,0.184,0.224,1.01,0.988,1,1.05,1.02,0.294,0.272,0.242,0.182,0.199,0.183,0.18,0.179,0.194,0.213
PC-3 [JPC-3],0.974,0.899,1,0.756,0.259,0.742,0.806,0.735,0.672,0.848,1.04,0.846,0.871,0.33,0.244,0.562,,0.519,0.549,0.597
PC-14,0.988,0.987,0.943,0.727,0.0823,1,1.06,1.03,0.948,1.07,0.852,0.793,0.792,0.116,0.0584,0.514,0.593,0.438,0.505,0.545
RERF-LC-KJ,0.969,0.913,0.829,0.522,0.199,0.878,0.925,1.17,0.851,1.14,0.894,0.711,0.764,0.174,0.218,0.906,1.12,1.06,1.08,1.18
SK-LU-1,1.04,1.19,1.02,0.3,0.303,0.747,0.996,1.31,0.168,0.838,0.857,0.51,0.357,0.299,0.279,0.374,0.374,0.371,0.35,0.417
SK-MES-1,1.08,1.01,0.979,1.02,0.176,1.19,1.34,1.28,1.24,1.31,0.997,1.01,0.86,0.212,0.18,0.325,0.342,0.26,0.313,0.385
SW 1573,0.696,0.683,0.82,0.161,0.132,1.03,0.973,0.812,0.948,0.988,0.774,0.905,0.708,0.17,0.126,0.35,0.486,0.399,0.371,0.387
